Article PMC9597362, “The thiophene α-terthienylmethanol isolated from Tagetes minuta inhibits angiogenesis by targeting protein kinase C isozymes α and β2” (Frontiers in Pharmacology, 2022)
Where two headings read alike, the source gives them in different places.

How the values were obtained:
[1] = system: bovine aortic endothelial cells (BAECs); assay: VEGF-induced tube formation assay; type: cell-based; settings: for antiangiogenic activity in tube formation: pure compounds, maximum concentration 30 μM; for IC50: Bos taurus, BAEC
Experimental: The experiment was performed according to Arnaoutova and Kleinman ([Arnaoutova and Kleinman, 2010]). Briefly, BAECs (1.5 × 10^4 cells) were placed on a 96-well plate previously coated with Matrigel®. The plates were incubated for 18 h (37°C, 5% CO2) in the presence and absence of the tested extracts or the pure compounds, at a maximum concentration of 100 μg/ml and 30 μM, respectively, with the addition of VEGF (10 ng/ml) as angiogenic stimuli. […] Controls without or with ethanol (negative control) were simultaneously run. The final concentration of vehicle per well in this and all the experiments described herein was 1% v/v. […] The images were obtained with an inverted microscope and analyzed with the ImageJ software. The tubular structures were quantified. The percentages of inhibition (I%) were calculated as I% = [1−(total tube length treatment/total tube length control)] × 100. Each condition was assessed in triplicate. Each experiment was performed independently three times.

PKC-β = settings: cited from earlier work; for Log(IC50/M): given as log of IC50 in M (negative)
BAEC cells = assay: Matrigel (Boyden chamber) invasion assay, BAEC; type: cell-based, bovine; settings: 24 h, VEGF 10 ng/ml chemoattractant, relative to control
[2] = system: 1:1 mixture of recombinant PKC-α and -β2 isozymes; settings: 1:1 mixture α and β, cited from earlier work; for Log(IC50/M): given as log of IC50 in M (negative)
PKC-α = settings: cited from earlier work; for Log(IC50/M): given as log of IC50 in M (negative)
MDA-MB-231 cells = assay: Matrigel (Boyden chamber) invasion assay, MDA-MB-231; type: cell-based, human; settings: 30 μM, 16 h, 10% FBS chemoattractant

In the case of `Cc1ccc(-c2ccc(C#CCCO)s2)s1` [Compound 1, 5′-methyl-[5-(4-hydroxy-1-butynyl)]-2,2′-bithiophene], the “antiangiogenic activity in tube formation” value [1] is reported as “devoid of activity”.
For `OCCC#Cc1ccc(-c2cccs2)s1` [Compound 2, 5-(4-hydroxybut-1-ynyl)-2,2′-bithiophene], the “antiangiogenic activity in tube formation” value [1] was “devoid of activity”.
For `OCc1ccc(-c2ccc(-c3cccs3)s2)s1` [Compound 3, 5-hydroxymethyl-2,2':5′,2″-terthiophene], the “Log(IC50/M)” value (PKC-β; listed for PKC β, ref Kim et al. (1998)) is listed as −5.3979, the IC50 (PKC-β; listed for PKC β, source assay used 1:1 mixture of PKC-α and -β2, ref Kim et al. (1998)) is listed as 4 µM and the invasive cells (BAEC cells; 10 μM) is listed as 15.7 ± 2.5%. The invasive cells (BAEC cells; 30 μM) was 1.6 ± 0.4%, the IC50 ([2]; ref Kim et al. (1998)) was 4 µM and the IC50 ([1]; conversion of the μM value, read-out: IC50 tube formation expressed) was roughly 0.8 µg/mL. The IC50 ([1]; pure compound, VEGF-induced, 18 h, read-out: IC50 tube formation) was 2.7 ± 0.4 µM, the “antiangiogenic effect compared with axitinib 10 μM” value ([1]; at 1.2 μM, p > 0.05) was “comparable to that of 10 μM of the potent angiogenesis inhibitor axitinib” and the “Log(IC50/M)” value (PKC-α; listed for PKC α, ref Kim et al. (1998)) was −5.3979. The “reduction of cell invasion” value (MDA-MB-231 cells) was 32.7 ± 3.1%.
For `O=Cc1ccc(-c2ccc(-c3ccc(C=O)s3)s2)s1` [DAT], the IC50 ([2]; ref Kim et al. (1998)) is listed as 0.3 µM and the “Log(IC50/M)” value ([2]; ref Kim et al. (1998)) is listed as −6.5229.
In the case of `N=C(N)NCCNS(=O)(=O)c1cccc2cnccc12` [H4, N-(2-guanidinoethyl)isoquinoline-5-sulfonamide], the IC50 ([2]; ref Kinsella et al. (1992)) is given as 10 µM and the “Log(IC50/M)” value ([2]; ref Kinsella et al. (1992)) is given as −5.0000.
For `CC1CNCCN1S(=O)(=O)c1cccc2cnccc12` (stereo not drawn) [H7, 1-(5-Isoquinolinesulfonyl)-2-methylpiperazine], the IC50 ([2]; ref Kinsella et al. (1992)) is given as 40 µM and the “Log(IC50/M)” value ([2]; ref Kinsella et al. (1992)) is given as −4.3979.
In the case of `CN1CCN(c2nc(C3=C(c4c[nH]c5ccccc45)C(=O)NC3=O)c3ccccc3n2)CC1` [NVP, 3-(1H-indol-3-yl)-4-[2-(4-methylpiperazin-1-yl)quinazolin-4-yl]-1H-pyrrole-2,5-dione], the “Log(IC50/M)” value (PKC-α; PKC α, ref Evenou et al. (2009)) is given as −9.0223.
For `c1csc(-c2ccc(-c3cccs3)s2)c1` [TT, Terthiophene], the IC50 ([2]; ref Kim et al. (1998)) is listed as 10 µM and the “Log(IC50/M)” value ([2]; ref Kim et al. (1998)) is listed as −5.0000.
